A word on the IC50: it is the concentration needed to halve the response being measured. Read a low IC50 as inhibition by little substance.

Counter-ions that a name gives are not always drawn. Where only a bound is given, the exact number is not on record here.

The target of the test is T1, His-EBNA1 (DNA binding domain of EBNA1, amino acids 459-607) (Epstein-Barr virus, UniProt P03211).
T1 construct: made in house; host or cells: E. coli
T1 sequence (P03211 459-607): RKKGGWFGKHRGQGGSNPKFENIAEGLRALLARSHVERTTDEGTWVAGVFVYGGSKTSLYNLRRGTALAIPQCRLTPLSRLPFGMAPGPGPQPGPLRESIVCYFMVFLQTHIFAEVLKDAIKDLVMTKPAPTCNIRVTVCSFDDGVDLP
The experiment in a line: Inhibition of 5′-biotin-oPL4624 binding to His-EBNA1 using Alpha Screen technology. To be noted: Alpha Screen Activity (IC50, inhibition of 5′-biotin-oPL4624 binding to His-EBNA1), 15 nM His-EBNA1, 0.2 nM bt-oPL4624, 2 hr room temperature. How it is done: Inhibition of 5′-biotin-oPL4624 binding to His-EBNA1 using Alpha Screen technology: Assays were performed using the DNA binding domain of EBNA1 (amino acids 459-607), which was His-tagged (His-EBNA1) and the self-complementary biotinylated (bt) oligonucleotide with the sequence 5′-bt-[…]-ATGCTACCC-3′ (bt-oPL4624). The protein was expressed in E. coli and purified according to Barwell, et al. (Barwell J A, Bochkarev A, Pfuetzner R A, Tong H, Yang D S, Frappier L, Edwards A M. (1995) Overexpression, purification, and crystallization of the DNA binding and dimerization domains of the Epstein-Barr virus nuclear antigen 1. J Biol Chem. 270: 20556-9.). The bt-oPL4624 oligonucleotide was purchased from Integrated DNA Technologies, Inc (IDT). AlphaScreen donor, acceptor beads and white, opaque 384-well assay plates were purchased from PerkinElmer, Inc.
Assays contained 15 nM His-EBNA1, 0.2 nM bt-oPL4624, 5 μg/mL AlphaScreen streptavidin donor beads and nickel chelate acceptor beads, and a series of concentrations of test compound ranging from 3.2 nM to 100 μM in a total volume of 40 μL assay buffer (25 mM Tris, pH 7.2, 160 mM NaCl, 1 mM MgCl2). His-EBNA1 (30 nM) and bt-oPL4624 (0.4 nM) were preincubated with 10 μg/mL nickel chelate AlphaScreen acceptor bead, or 10 μg/mL streptavidin AlphaScreen donor bead, respectively, for 30 minutes at room temperature in assay buffer. Twenty microliters of His-EBNA1/acceptor bead mix and bt-oPL4624/donor bead mix were transferred to assay plates containing […] of 1:3 serial dilutions of test compounds previously prepared in DMSO at concentrations ranging from 0.32 μM to 10 mM. Nonspecific binding was determined with 5 μg/mL AlphaScreen acceptor bead in the absence of His-EBNA1. After 2 hr incubation at room temperature, the AlphaScreen signal was measured on the Envision plate reader (PerkinElmer, Inc.) at 680 nm excitation and 570 nm emission. Inhibition values at each concentration of test compound were determined by setting 100% equal to raw data values in the absence of EBNA1 and 0% equal to the raw data values in the presence of EBNA1. Nonlinear regression fits of the inhibition values to a one-site dose-response equation were performed using GraphPad Prism.
Background: Alpha assays give light when donor and acceptor beads are brought close together.
`Cc1ncc(S(=O)(=O)NCc2ccc(C#Cc3cccc(C(=O)O)c3-n3cccc3)cc2)n1C` [Entry 164]: the half-inhibitory concentration (IC50) was 1 to 10 µM.
`CS(=O)(=O)Nc1cccc(-c2c(C#Cc3ccccc3)cccc2C(=O)O)c1` [Entry 134, 2-(3-methanesulfonamidophenyl)-3-(2-phenylethynyl)benzoic acid] yielded an IC50 of 1 to 10 µM.
With `NC(=O)c1cccc(C#Cc2cccc(C(=O)O)c2-n2cccc2)c1` [Entry 5, 3-[2-(3-carbamoylphenyl)ethynyl]-2-(1H-pyrrol-1-yl)benzoic acid] the figure was less than 1 µM; with `O=C(O)c1cccc(C#Cc2ccc3[nH]ccc3c2)c1` [Entry 77, 3-[2-(1H-indol-5-yl)ethynyl]benzoic acid], less than 1 µM.
The same measure for `O=C(O)c1cccc(C#Cc2cccc(CO)c2)c1-c1ccc2cc[nH]c2c1` [Entry 249, 3-((3-(hydroxymethyl)phenyl)ethynyl)-2-(1H-indol-6-yl)benzoic acid]: 1 to 10 µM.
`NC(=O)c1cccc(-c2c(C#Cc3cccc(O)c3)cccc2C(=O)O)c1` [Entry 267, 2-(3-carbamoylphenyl)-3-[2-(3-hydroxyphenyl)ethynyl]benzoic acid] had an IC50 of 10 to 100 µM.
As for `O=C(O)c1cccc(C#Cc2ccccc2)c1-n1cccc1` [Entry 72, 3-(2-phenylethynyl)-2-(1H-pyrrol-1-yl)benzoic acid], the IC50 was less than 1 µM.
For the molecule `Cc1ccc(-c2c(C#Cc3ccncc3)cccc2C(=O)O)cc1` [Entry 260, 2-(4-methylphenyl)-3-[2-(pyridin-4-yl)ethynyl]benzoic acid; trifluoroacetate salt], the IC50 was 10 to 100 µM.
With `O=C(O)c1cccc(C#Cc2ccc(NS(=O)(=O)c3cccs3)cc2)c1-c1ccc2cc[nH]c2c1` [Entry 216, 2-(1H-indol-6-yl)-3-[4-(thiophene-2-sulfonylamino)-phenylethynyl]-benzoic acid] the figure was 1 to 10 µM.
For `CS(=O)(=O)Nc1ccc(C#Cc2cccc(C(=O)O)c2-c2ccc3cc[nH]c3c2)cc1` [Entry 215, 2-(1H-indol-6-yl)-3-(4-methanesulfonylamino-phenylethynyl)-benzoic acid], the IC50 is 1 to 10 µM.
With `O=C(O)c1cccc(C#Cc2ccccc2)c1-n1ccc2ccccc21` [Entry 299, 2-indol-1-yl-3-phenylethynyl-benzoic acid] the figure was 1 to 10 µM; with `Cc1ccc(C)n1-c1c(C#Cc2cccc(O)c2)cccc1C(=O)O` [Entry 22, 2-(2,5-dimethyl-1H-pyrrol-1-yl)-3-[2-(3-hydroxyphenyl)ethynyl]benzoic acid], less than 1 µM; with `O=C(O)c1cccc(C#Cc2cccc(NS(=O)(=O)c3cccs3)c2)c1-c1ccc2cc[nH]c2c1` [Entry 235, 2-(1H-indol-6-yl)-3-((3-(thiophene-2-sulfonamido)phenyl)ethynyl)benzoic acid], less than 1 µM.
`O=C(O)c1cccc(C#Cc2ccccc2)c1-n1cc(-c2ccccc2)nn1` [Entry 109, 2-(4-phenyl-1H-1,2,3-triazol-1-yl)-3-(2-phenylethynyl)benzoic acid] displayed an IC50 of 10 to 100 µM.
In the case of `Cn1ncc2ccc(-c3c(C#Cc4c[nH]c5ncccc45)cccc3C(=O)O)cc21` [Entry 167, 2-(1-methyl-1H-indazol-6-yl)-3-(2-{1H-pyrrolo[2,3-b]pyridin-3-yl}ethynyl)benzoic acid], the IC50 was in the range of 10 to 100 µM.
On to `CNS(=O)(=O)c1cccc(C#Cc2cccc(C(=O)O)c2-n2cccc2)c1` [Entry 1, 3-(3-methylsulfamoyl-phenylethynyl)-2-pyrrol-1-yl-benzoic acid], for which the IC50 is 1 to 10 µM.
Consider `O=C(O)c1ccc(C#Cc2cccc(C(=O)O)c2-c2ccc3cc[nH]c3c2)cc1` [Entry 209, 3-(4-carboxy-phenylethynyl)-2-(1H-indol-6-yl)-benzoic acid], for which the half-maximal inhibitory concentration (IC50) was less than 1 µM.
Consider `Nc1cccc(C#Cc2cccc(C(=O)O)c2-c2ccc3cc[nH]c3c2)c1` [Entry 233, 3-((3-aminophenyl)ethynyl)-2-(1H-indol-6-yl)benzoic acid], for which the IC50 was less than 1 µM.
For the molecule `O=C(O)c1cccc(C#Cc2cc(O)cc(F)c2)c1-n1cccc1` [Entry 38, 3-[2-(3-fluoro-5-hydroxyphenyl)ethynyl]-2-(1H-pyrrol-1-yl)benzoic acid], the IC50 was less than 1 µM.
The same measure for `COc1ccc(C#Cc2cccc(C(=O)O)c2)cc1` [Entry 94, 3-[2-(4-methoxyphenyl)ethynyl]benzoic acid]: 100 to 1000 µM; for `O=C(O)c1cccc(C#Cc2ccccc2)c1-c1ccncc1` [Entry 97, 3-(2-phenylethynyl)-2-(pyridin-4-yl)benzoic acid trifluoroacetic acid salt]: 10 to 100 µM.
With `O=C(O)c1cccc(C#Cc2ccccc2)c1-c1ccccc1S(=O)(=O)NCCO` [Entry 137, 2-{2-[(2-hydroxyethyl)sulfamoyl]phenyl}-3-(2-phenylethynyl)benzoic acid], the IC50 was in the range of 10 to 100 µM.
With `CC(C)(O)C#Cc1cccc(C(=O)O)c1-c1ccc2cc[nH]c2c1` [Entry 248, 3-(3-hydroxy-3-methylbut-1-ynyl)-2-(1H-indol-6-yl)benzoic acid] the figure was less than 1 µM; with `O=C(O)c1cccc(C#Cc2cscn2)c1-n1cccc1` [Entry 29, 2-(1H-pyrrol-1-yl)-3-[2-(1,3-thiazol-4-yl)ethynyl]benzoic acid], less than 1 µM.
The same measure for `NS(=O)(=O)c1cccc(C#Cc2ccccc2)c1-n1cccc1` [Entry 152, 3-Phenylethynyl-2-pyrrol-1-yl-benzenesulfonamide]: 1 to 10 µM.
With `O=C(O)c1cccc(C#Cc2ccccc2)c1-n1ccnc1` [Entry 294, 2-imidazol-1-yl-3-phenylethynyl-benzoic acid] the figure was 10 to 100 µM; with `O=C(O)c1cccc(C#CC(O)c2ccccc2)c1-c1ccc2cc[nH]c2c1` (stereo not shown) [Entry 247, 3-(3-hydroxy-3-phenylprop-1-ynyl)-2-(1H-indol-6-yl)benzoic acid], less than 1 µM; with `CC(=O)Nc1ccc(C#Cc2cccc(C(=O)O)c2-c2ccc3cc[nH]c3c2)cc1` [Entry 213, 3-(4-acetylamino-phenylethynyl)-2-(1H-indol-6-yl)-benzoic acid], 10 to 100 µM.
In turn, `O=C(O)c1cccc(C#Cc2ccccc2CO)c1F` [Entry 88, 2-fluoro-3-{2-[2-(hydroxymethyl)phenyl]ethynyl}benzoic acid] showed an IC50 of 1 to 10 µM.
The same measure for `O=C(O)c1cccc(C#CCN2CCN(c3ccccc3)CC2)c1-c1ccccc1` [Entry 159, 2-phenyl-3-[3-(4-phenylpiperazin-1-yl)prop-1-yn-1-yl]benzoic acid]: 10 to 100 µM; for `CC(C)(CNc1cccc(C#Cc2cccc(C(=O)O)c2-n2cccc2)c1)C(=O)O` [Entry 10, 3-(2-{3-[(2-carboxy-2,2-dimethylethyl)amino]phenyl}ethynyl)-2-(1H-pyrrol-1-yl)benzoic acid]: 1 to 10 µM; for `Cc1ccc(C)n1-c1c(C#Cc2cccc(C(N)=O)c2)cccc1C(=O)O` [Entry 193, 3-(3-carbamoyl-phenylethynyl)-2-(2,5-dimethyl-pyrrol-1-yl)-benzoic acid]: 1 to 10 µM.
With `O=C(O)c1cccc(C#CCCc2ccccc2)c1-n1cccc1` [Entry 65, 3-(4-phenylbut-1-yn-1-yl)-2-(1H-pyrrol-1-yl)benzoic acid] the figure was less than 1 µM.
The same measure for `O=C(O)c1cccc(C#Cc2ccccc2)c1-c1ccc2c(c1)NCC2` [Entry 237, 2-(indolin-6-yl)-3-(phenylethynyl)benzoic acid]: 10 to 100 µM.

The values above are taken from US10421718B2, “EBNA1 inhibitors and their method of use” (priority 2013, dated 2019).
